Results taken from the supplement of paper PMC10307832.

What was measured:
Experiment in all cases: relative viability (nuclei count vs DMSO), 5 days (fraction); higher = more cells survive
RERF-LC-KJ = tested on: RERF-LC-KJ
Procedure, shortened: (§1)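 Lung cancer cell lines in 1536-well plates were dosed by pin tool the day after seeding, either with one drug alone or with a fixed anchor-drug dose plus five library-drug doses (not always all listed) in √10 steps. After 5 days, cells were fixed and their nuclei stained in one step (final 0.05% Triton X-100, 1% formaldehyde, 1 ug/ml Hoechst), then counted on 4× images. Relative viability is the nuclei count in treated wells divided by that in vehicle wells. Values are medians of duplicate plates.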

LCLC-103H = tested on: LCLC-103H
Procedure, shortened: as §1

NCI-H1563 = tested on: NCI-H1563
Procedure, shortened: as §1

SW 900 = tested on: SW 900
Procedure, shortened: as §1

NCI-H520 = tested on: NCI-H520
Procedure, shortened: as §1

NCI-H522 = tested on: NCI-H522
Procedure, shortened: as §1

LXF-289 = tested on: LXF-289
Procedure, shortened: as §1

NCI-H441 = tested on: NCI-H441
Procedure, shortened: as §1

NCI-H727 = tested on: NCI-H727
Procedure, shortened: as §1

NCI-H1792 = tested on: NCI-H1792
Procedure, shortened: as §1

PC-14 = tested on: PC-14
Procedure, shortened: as §1

NCI-H1355 = tested on: NCI-H1355
Procedure, shortened: as §1

NCI-H322M = tested on: NCI-H322M
Procedure, shortened: as §1

NCI-H460 = tested on: NCI-H460
Procedure, shortened: as §1

NCI-H2170 = tested on: NCI-H2170
Procedure, shortened: as §1

NCI-H1651 = tested on: NCI-H1651
Procedure, shortened: as §1

NCI-H650 = tested on: NCI-H650
Procedure, shortened: as §1

NCI-H2347 = tested on: NCI-H2347
Procedure, shortened: as §1

NCI-H1755 = tested on: NCI-H1755
Procedure, shortened: as §1

SK-MES-1 = tested on: SK-MES-1
Procedure, shortened: as §1

NCI-H596 = tested on: NCI-H596
Procedure, shortened: as §1

NCI-H661 = tested on: NCI-H661
Procedure, shortened: as §1

NCI-H1915 = tested on: NCI-H1915
Procedure, shortened: as §1

NCI-H3122 = tested on: NCI-H3122
Procedure, shortened: as §1

COc1cc(N2CCC(C(N)=O)CC2)ccc1Nc1nc(N)c(Cl)c(Nc2ccccc2S(=O)(=O)C(C)C)n1 [HG-5-88-01] + COc1cccc2cc(-c3nc([C@H]4CC[C@H](C(=O)O)CC4)n4ncnc(N)c34)[nH]c12 [OSI-027] (partner 0.5 µM)
relative viability (RERF-LC-KJ; first compound 0.04 µM): 0.637 | relative viability (RERF-LC-KJ; first compound 0.1265 µM): 0.54 | relative viability (RERF-LC-KJ; first compound 0.4 µM): 0.506 | relative viability (RERF-LC-KJ; first compound 1.265 µM): 0.345 | relative viability (RERF-LC-KJ; first compound 4 µM): 0.308 | relative viability (LCLC-103H; first compound 0.04 µM): 0.416 | relative viability (LCLC-103H; first compound 0.1265 µM): 0.435 | relative viability (LCLC-103H; first compound 0.4 µM): 0.381 | relative viability (LCLC-103H; first compound 1.265 µM): 0.362 | relative viability (LCLC-103H; first compound 4 µM): 0.405 | relative viability (NCI-H1563; first compound 0.04 µM): 0.715 | relative viability (NCI-H1563; first compound 0.1265 µM): 0.754 | relative viability (NCI-H1563; first compound 0.4 µM): 0.709 | relative viability (NCI-H1563; first compound 1.265 µM): 0.638 | relative viability (NCI-H1563; first compound 4 µM): 0.573 | relative viability (SW 900; first compound 0.04 µM): 0.505 | relative viability (SW 900; first compound 0.1265 µM): 0.646 | relative viability (SW 900; first compound 0.4 µM): 0.6 | relative viability (SW 900; first compound 1.265 µM): 0.57 | relative viability (SW 900; first compound 4 µM): 0.381 | relative viability (NCI-H520; first compound 0.04 µM): 0.23 | relative viability (NCI-H520; first compound 0.1265 µM): 0.258 | relative viability (NCI-H520; first compound 0.4 µM): 0.236 | relative viability (NCI-H520; first compound 1.265 µM): 0.289 | relative viability (NCI-H520; first compound 4 µM): 0.221 | relative viability (NCI-H522; first compound 0.04 µM): 0.641 | relative viability (NCI-H522; first compound 0.1265 µM): 0.634 | relative viability (NCI-H522; first compound 0.4 µM): 0.66 | relative viability (NCI-H522; first compound 1.265 µM): 0.579 | relative viability (NCI-H522; first compound 4 µM): 0.61 | relative viability (LXF-289; first compound 0.04 µM): 0.755 | relative viability (LXF-289; first compound 0.1265 µM): 0.815 | relative viability (LXF-289; first compound 0.4 µM): 0.77 | relative viability (LXF-289; first compound 1.265 µM): 0.635 | relative viability (LXF-289; first compound 4 µM): 0.337 | relative viability (NCI-H441; first compound 0.04 µM): 0.787 | relative viability (NCI-H441; first compound 0.1265 µM): 0.77 | relative viability (NCI-H441; first compound 0.4 µM): 0.848 | relative viability (NCI-H441; first compound 1.265 µM): 0.437 | relative viability (NCI-H441; first compound 4 µM): 0.421 | relative viability (NCI-H727; first compound 0.04 µM): 0.423 | relative viability (NCI-H727; first compound 0.1265 µM): 0.619 | relative viability (NCI-H727; first compound 0.4 µM): 0.493 | relative viability (NCI-H727; first compound 1.265 µM): 0.424 | relative viability (NCI-H727; first compound 4 µM): 0.355 | relative viability (NCI-H1792; first compound 0.04 µM): 0.809 | relative viability (NCI-H1792; first compound 0.1265 µM): 0.823 | relative viability (NCI-H1792; first compound 0.4 µM): 0.794 | relative viability (NCI-H1792; first compound 4 µM): 0.574 | relative viability (PC-14; first compound 0.04 µM): 0.849 | relative viability (PC-14; first compound 0.1265 µM): 1.12 | relative viability (PC-14; first compound 0.4 µM): 0.65 | relative viability (PC-14; first compound 1.265 µM): 0.321 | relative viability (PC-14; first compound 4 µM): 0.218 | relative viability (NCI-H1355; first compound 0.04 µM): 0.341 | relative viability (NCI-H1355; first compound 0.1265 µM): 0.419 | relative viability (NCI-H1355; first compound 0.4 µM): 0.3 | relative viability (NCI-H1355; first compound 1.265 µM): 0.253 | relative viability (NCI-H1355; first compound 4 µM): 0.237 | relative viability (NCI-H322M; first compound 0.04 µM): 0.501 | relative viability (NCI-H322M; first compound 0.1265 µM): 0.481 | relative viability (NCI-H322M; first compound 0.4 µM): 0.448 | relative viability (NCI-H322M; first compound 4 µM): 0.293 | relative viability (NCI-H460; first compound 0.04 µM): 0.604 | relative viability (NCI-H460; first compound 0.1265 µM): 0.655 | relative viability (NCI-H460; first compound 0.4 µM): 0.543 | relative viability (NCI-H460; first compound 1.265 µM): 0.344 | relative viability (NCI-H460; first compound 4 µM): 0.287 | relative viability (NCI-H2170; first compound 0.04 µM): 0.716 | relative viability (NCI-H2170; first compound 0.1265 µM): 0.764 | relative viability (NCI-H2170; first compound 0.4 µM): 0.721 | relative viability (NCI-H2170; first compound 1.265 µM): 0.238 | relative viability (NCI-H2170; first compound 4 µM): 0.601 | relative viability (NCI-H1651; first compound 0.04 µM): 0.748 | relative viability (NCI-H1651; first compound 0.1265 µM): 0.696 | relative viability (NCI-H1651; first compound 0.4 µM): 0.605 | relative viability (NCI-H1651; first compound 1.265 µM): 0.627 | relative viability (NCI-H1651; first compound 4 µM): 0.58 | relative viability (NCI-H650; first compound 0.04 µM): 0.492 | relative viability (NCI-H650; first compound 0.1265 µM): 0.476 | relative viability (NCI-H650; first compound 0.4 µM): 0.431 | relative viability (NCI-H650; first compound 1.265 µM): 0.443 | relative viability (NCI-H650; first compound 4 µM): 0.319 | relative viability (NCI-H2347; first compound 0.04 µM): 0.363 | relative viability (NCI-H2347; first compound 0.1265 µM): 0.448 | relative viability (NCI-H2347; first compound 0.4 µM): 0.388 | relative viability (NCI-H2347; first compound 1.265 µM): 0.25 | relative viability (NCI-H2347; first compound 4 µM): 0.274 | relative viability (NCI-H1755; first compound 0.04 µM): 0.722 | relative viability (NCI-H1755; first compound 0.1265 µM): 0.731 | relative viability (NCI-H1755; first compound 0.4 µM): 0.677 | relative viability (NCI-H1755; first compound 1.265 µM): 0.686 | relative viability (NCI-H1755; first compound 4 µM): 0.434 | relative viability (SK-MES-1; first compound 0.04 µM): 0.603 | relative viability (SK-MES-1; first compound 0.1265 µM): 0.569 | relative viability (SK-MES-1; first compound 0.4 µM): 0.492 | relative viability (SK-MES-1; first compound 1.265 µM): 0.331 | relative viability (SK-MES-1; first compound 4 µM): 0.4 | relative viability (NCI-H596; first compound 0.04 µM): 0.61 | relative viability (NCI-H596; first compound 0.1265 µM): 0.693 | relative viability (NCI-H596; first compound 0.4 µM): 0.729 | relative viability (NCI-H596; first compound 1.265 µM): 0.59 | relative viability (NCI-H596; first compound 4 µM): 0.393 | relative viability (NCI-H661; first compound 0.04 µM): 0.659 | relative viability (NCI-H661; first compound 0.1265 µM): 0.709 | relative viability (NCI-H661; first compound 0.4 µM): 0.684 | relative viability (NCI-H661; first compound 1.265 µM): 0.428 | relative viability (NCI-H661; first compound 4 µM): 0.569 | relative viability (NCI-H1915; first compound 0.04 µM): 0.63 | relative viability (NCI-H1915; first compound 0.1265 µM): 0.625 | relative viability (NCI-H1915; first compound 0.4 µM): 0.69 | relative viability (NCI-H1915; first compound 1.265 µM): 0.697 | relative viability (NCI-H1915; first compound 4 µM): 0.527 | relative viability (NCI-H3122; first compound 0.04 µM): 0.226 | relative viability (NCI-H3122; first compound 0.1265 µM): 0.213 | relative viability (NCI-H3122; first compound 0.4 µM): 0.114 | relative viability (NCI-H3122; first compound 1.265 µM): 0.149 | relative viability (NCI-H3122; first compound 4 µM): 0.129
